Nine compounds from ChEMBL document CHEMBL1151046, “Selective cyclooxygenase inhibitors: Novel 4-spiro 1,2-diarylcyclopentenes are potent and orally active cox-2 inhibitors” (Bioorg Med Chem Lett, 1995) can be followed below.

The term logP denotes a log measure of how a compound divides between an organic and an aqueous phase. Lower therefore signals lower lipophilicity. By pIC50 is commonly meant −log10 of the IC50, conventionally taken in molar units. The low end stands for a high IC50, the high end for a low IC50.

The species named for data set [1] is Rattus norvegicus. Description: animal or person. It is filed as functional. The settings on record: po.
The next data set can be described thus: physchem. The settings on record: octanol/water.
The target in data set [2] is Prostaglandin G/H synthase 1 (Homo sapiens, UniProt P23219).
Data set [3] is filed under the species Rattus norvegicus. The format is functional, Stomach.
Data set [4] is filed under the species Rattus norvegicus. The data set can be described thus: animal or person. The settings on record: po, read-out: Inhibition.

Structures are written as SMILES. pIC50: −log10 of the molar value.

Prostaglandin G/H synthase 1, sequence (P23219 whole entry): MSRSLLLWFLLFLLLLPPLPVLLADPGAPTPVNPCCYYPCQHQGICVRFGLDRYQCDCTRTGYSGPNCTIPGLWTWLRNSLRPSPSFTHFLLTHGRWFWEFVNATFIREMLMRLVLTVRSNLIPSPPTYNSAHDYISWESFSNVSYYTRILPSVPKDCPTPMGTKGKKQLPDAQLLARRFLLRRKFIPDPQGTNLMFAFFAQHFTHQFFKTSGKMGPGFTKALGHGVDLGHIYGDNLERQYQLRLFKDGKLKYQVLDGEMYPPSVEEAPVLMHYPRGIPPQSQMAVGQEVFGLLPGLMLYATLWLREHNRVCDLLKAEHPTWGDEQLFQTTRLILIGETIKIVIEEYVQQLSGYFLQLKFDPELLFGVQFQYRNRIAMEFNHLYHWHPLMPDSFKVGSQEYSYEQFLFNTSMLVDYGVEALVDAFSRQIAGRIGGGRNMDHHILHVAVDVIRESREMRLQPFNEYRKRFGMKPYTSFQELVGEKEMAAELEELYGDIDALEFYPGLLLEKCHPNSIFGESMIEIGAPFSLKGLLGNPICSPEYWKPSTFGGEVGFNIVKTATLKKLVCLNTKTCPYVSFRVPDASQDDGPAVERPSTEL

`NS(=O)(=O)c1ccc(C2=C(c3ccc(F)cc3)CC3(CCC3)C2)cc1` had an inhibition in vivo at 30 mg/kg in the data set listed under Rattus norvegicus [1] of 37%. Moreover, the logP in “physchem” was 4.1.
Compound `CS(=O)(=O)c1ccc(C2=C(c3ccc(F)cc3)CC3(CCCC3)C2)cc1` showed a logP in “physchem” of 5.4.
`CS(=O)(=O)c1ccc(C2=C(c3ccc(F)cc3)CC3(CCCCC3)C2)cc1`: the pIC50 in data set [2] was under 4.00.
`NS(=O)(=O)c1ccc(C2=C(c3ccc(F)cc3)CC3(CC3)C2)cc1` returned an inhibition in vivo at 30 mg/kg in the data set filed under Rattus norvegicus [1] of 60%. The compound also registered a Gastric lesions in the data set listed under Rattus norvegicus [3] of 10. The compound further showed a lipophilicity (logP) in the data set “physchem” of 4.
As for `CS(=O)(=O)c1ccc(C2=C(c3ccc(F)cc3)CC3(CC3)C2)cc1`, the inhibition in vivo at 30 mg/kg in the data set listed under Rattus norvegicus [1] stood at 38%. The same compound returned a logP in “physchem” of 4.5. This compound showed a pIC50 in data set [2] of 5.27.
In the case of `CC1(C)CC(c2ccc(F)cc2)=C(c2ccc(S(C)(=O)=O)cc2)C1`, the inhibition in vivo at 30 mg/kg in the data set filed under Rattus norvegicus [4] was determined as 50%.
In turn, `CS(=O)(=O)Nc1ccc([N+](=O)[O-])cc1OC1CCCCC1` [NS-398] gave an inhibition in vivo at 30 mg/kg in the data set listed under Rattus norvegicus [1] of 60%.
In turn, `CS(=O)(=O)c1ccc(C2=C(c3ccc(F)cc3)CC3(CCC3)C2)cc1` registered an inhibition in vivo at 30 mg/kg in the data set filed under Rattus norvegicus [1] of 23%. This compound also had a lipophilicity (logP) in “physchem” of 4.9.
For `COc1ccc2c(c1)c(CC(=O)O)c(C)n2C(=O)c1ccc(Cl)cc1` [INDOMETHACIN], the inhibition in vivo at 30 mg/kg in the data set filed under Rattus norvegicus [1] turned out to be 66%.
